Experiment: Solubility in aqueous media / aqueous buffer solutions
Format: physicochemical

Row | Compound | solubility in the aqueous buffer solutions (hydrochloride salt, aqueous buffer solutions) | solubility in the aqueous media at various pH (free base, aqueous media at various pH)
1 | CN1CCc2cccc3c2[C@@H]1Cc1ccc(O)c(O)c1-3.Cl [(6aS)-6-methyl-5,6,6a,7-tetrahydro-4H-dibenzo[de,g]quinoline-10,11-diol hydrochloride] | low solubility | 
2 | CN1CCc2cccc3c2[C@@H]1Cc1ccc(O)c(O)c1-3 [(6aS)-6-methyl-5,6,6a,7-tetrahydro-4H-dibenzo[de,g]quinoline-10,11-diol] |  | low solubility

Reference: US20220313682A1, “Pharmaceutical Compositions of (6aS)-6-methyl-5,6,6a,7-tetrahydro-4H-dibenzo[de,g]quinoline-10,11-diol” (Aclipse One Inc., priority 2019, published 2022)
